Tests used:
Type in all cases: cell-based
[1] = system: colorectal carcinoma cell line DLD-1; assay: Tumor cell viability assay (Trypan blue exclusion), DLD-1; conditions: DLD-1 cell line, tested at 5, 10 and 20 μM, 96 hours, read-out: G150 (the concentration resulting in 50% growth inhibition)
Description: (§1) The effect of the Example 13 compound on the growth of normal fibroblasts and on tumor cells of prostate, colon, lung, brain, pancreas and breast origin was examined utilizing the following cell lines: prostate carcinoma cell line DU-145; colorectal carcinoma cell line DLD-1; non-small cell lung carcinoma cell line H157; pancreatic carcinoma cell line MIA-Pa-Ca-2; glioblastoma cell line U87; and breast adenocarcinoma cell line BT-20. BT-20 is an estrogen-unresponsive cell line. NIH/3T3 and HFL are normal murine and human fibroblasts, respectively. BT-20, DLD-1 and H157 were grown in Dulbecco's modified Eagle's medium (DMEM) containing 10% fetal bovine serum supplemented with penicillin and streptomycin. DU145 was cultured in RPMI with 10% fetal bovine serum containing penicillin and streptomycin. […]
(§2) Cells were treated with the Example 13 compound at concentrations of 100, 250, 500 and 1000 nM. Cell viability was determined after 96 hours by the Trypan blue exclusion method. […] The drug G150 (the concentration resulting in 50% growth inhibition) was calculated as 200 nM for the MIA-Pa-Ca-2 cell line.
(§3) The procedure of Example 40 was followed for the compound of Example 37, on cell lines DLD-1, H157 and BT20, at 5, 10 and 20 μM concentrations. The drug G150 was calculated for each cell line as follows: DLD, 8 μM; H157, 15 μM; and BT20, 15 μM.

[2] = system: non-small cell lung carcinoma cell line H157; assay: Tumor cell viability assay (Trypan blue exclusion), H157; conditions: tested at 5, 10 and 20 μM, 96 hours, read-out: G150 (the concentration resulting in 50% growth inhibition)
Description: as §1, §2, §3

[3] = system: breast adenocarcinoma cell line BT-20; assay: Tumor cell viability assay (Trypan blue exclusion), BT-20; conditions: BT20 cell line, tested at 5, 10 and 20 μM, 96 hours, read-out: G150 (the concentration resulting in 50% growth inhibition)
Description: as §1, §2, §3

[4] = system: NIH/3T3 normal murine fibroblasts; assay: Normal fibroblast viability assay (Trypan blue exclusion), NIH 3T3; conditions: normal cells NIH 3T3; treated at 100-1000 nM; 96 hours
Description: (§4) The effect of the Example 13 compound on the growth of normal fibroblasts and on tumor cells of prostate, colon, lung, brain, pancreas and breast origin was examined utilizing the following cell lines: prostate carcinoma cell line DU-145; colorectal carcinoma cell line DLD-1; non-small cell lung carcinoma cell line H157; pancreatic carcinoma cell line MIA-Pa-Ca-2; glioblastoma cell line U87; and breast adenocarcinoma cell line BT-20. BT-20 is an estrogen-unresponsive cell line. NIH/3T3 and HFL are normal murine and human fibroblasts, respectively. BT-20, DLD-1 and H157 were grown in Dulbecco's modified Eagle's medium (DMEM) containing 10% fetal bovine serum supplemented with penicillin and streptomycin. DU145 was cultured in RPMI with 10% fetal bovine serum containing penicillin and streptomycin. NIH3T3 and HFL cells were grown in DMEM containing 10% calf serum supplemented with penicillin and streptomycin. Cells were plated at density levels of 1.0×10^5 cells per well in six-well plates. Cell cultures were maintained at 37° C. in a humidified atmosphere of 5% CO2.
as §2

[5] = system: pancreatic carcinoma cell line MIA-Pa-Ca-2; assay: Tumor cell viability assay (Trypan blue exclusion), MIA-Pa-Ca-2; conditions: MIA-Pa-Ca-2 cell line, 96 hours, vs DMSO-treated cells, read-out: G150 (the concentration resulting in 50% growth inhibition)
Description: as §4, §2

[6] = system: HFL normal human fibroblasts; assay: Normal fibroblast viability assay (Trypan blue exclusion), HFL; conditions: normal cells HFL; treated at 100-1000 nM; 96 hours
Description: as §4, §2

| IC50 [5] | Molecule | IC50 [1] | IC50 [2] | IC50 [3] | cell death [4] | growth inhibition [4] | cell death [6] | growth inhibition [6] |
| --- | --- | --- | --- | --- | --- | --- | --- | --- |
| – | O=[N+]([O-])c1ccccc1/C=C/S(=O)(=O)Cc1ccc(Cl)cc1Cl [Example 37, (E)-2-Nitrostyryl-2,4-dichlorobenzylsulfone] | 8 µM | 15 µM | 15 µM | – | – | – | – |
| 0.2 µM | (E)-2,6-Dimethoxystyryl-4-methoxybenzylsulfone [Example 13] | – | – | – | no appreciable cell death | 5% | no appreciable cell death | 5% |

— patent US7053123B2, “Substituted (e)-styryl benzylsulfones for treating proliferative disorders” (Temple University-of the Commonwealth System of Higher …, priority 2000, dated 2006)
